Laboratory results published in patent US9833433B1, “Compositions, methods of use, and methods of treatment” (priority 2013, dated 2017).

Columns and labels:
[1] = system: NF-κB p65 binding to ptgs2 promoter; format: cell-based; conditions: mixed culture; Δ^9-THC 30 μM
spatial memory = test: Morris water maze test (spatial memory); format: in vivo, mice; conditions: 10 mg/kg once a day for 7 days
Method: (§1) The classic Morris water maze and fear conditioning tests were performed to determine spatial and fear memory as described previously (Chen et al., 2012). The ‘open field’ test was conducted to detect the locomotor activity and the bar test was used to detect catalepsy (Egashira et al., 2007).
The classic Morris water maze test was used to determine spatial memory as described previously (Chen et al., 2012). A circular water tank (diameter 120 cm and 75 cm in high) was filled with water and the water was made opaque with non-toxic white paint. A round platform (diameter 15 cm) was hidden 1 cm beneath the surface of the water at the center of a given quadrant of the water tank. COX-2 KO and WT mice received training in the Morris water maze for 5 days without any treatments (naïve). […] For each trial, the mouse was released from the wall of the tank and allowed to search, find, and stand on the platform for 10 seconds within the 60-second trial period. […] During the probe test, the platform was removed from the pool, and the task performances were recorded for 60 seconds by a video-camera and the task performances, including swimming paths, speed, and time spent in each quadrant using an EthoVision video tracking system (Noldus). The time spent in each quadrant was analyzed.

catalepsy = test: Bar test (catalepsy); format: in vivo, mice; conditions: Δ^9-THC 10 mg/kg; 30, 60, and 90 min after injection
Method: as §1
The cataleptic effect of Δ^9-THC was detected using the bar test as described previously with modification (Egashira et al., 2007; Pertwee and Wickens, 1991). Briefly, the front paws of each mouse were placed on an elevated rod (0.5 cm in diameter and 3.5 cm from the bottom of the test box) and the duration of time that the mouse kept motionless was determined. The test was conducted 30, 60, and 90 min after Δ^9-THC injection. Celebrex was injected 30 min prior to Δ^9-THC injection.

locomotor activity = test: Open field test (locomotor activity); format: in vivo, mice; conditions: Δ^9-THC 10 mg/kg; 30 min open field
Method: as §1
The ‘open field’ test was conducted using an automatic-recording open-field working station (MED Associates, Georgia, Vt.). During the test, mice were individually released into the center of the box immediately after injections of Δ^9-THC, NS398, Δ^9-THC+NS398, Celebrex or Celebrex+Δ^9-THC. Celebrex and NS398 were injected 30 min prior to Δ^9-THC injection and allowed to explore the field for 30 min and their behaviors were recorded by a photobeam-scanning system and a video camera simultaneously. Data were analyzed automatically by the computer-sampling system.

PSD-95 = test: Hippocampal PSD-95 expression (immunoblot); format: in vivo, mice; conditions: Δ^9-THC for 7 days
Method: (§2) Western blot assay was conducted using specific antibodies (Table S1) to determine expressions of COX-2, glutamate receptor subunits, PSD-95, G-protein subunits, phosphoproteins, BACE1 and neprilysin in hippocampal tissue and/or in cultured cells as described previously (Chen et al., 2012). Surface biotinylation assays were performed to determine surface expression of glutamate receptor subunits in hippocampal slices as described previously (Fan et al., 2010).

Aβ plaques = Aβ plaques in 5XFAD APP transgenic mice (immunohistochemistry); format: in vivo; conditions: Δ^9-THC 3 mg/kg once daily for 4 weeks
Method: Immunohistochemical analyses were performed to determine total Aβ in coronal brain sections as described previously (Chen et al., 2012). 5XFAD APP transgenic mice that vehicle, or Δ^9-THC (3 mg/kg) or Δ^9-THC+Celebrex (1 mg/kg) for 4 weeks at 4 to 6 months of age were anesthetized with ketamine/Xylazine (200/10 mg/kg) and subsequently transcardially perfused with PBS followed by 4% paraformaldehyde in phosphate buffer. The brains were quickly removed from the skulls and fixed in 4% paraformaldehyde overnight, and then transferred into the PBS containing 30% sucrose until sinking to the bottom of the small glass jars. Cryostat sectioning was made on a freezing Vibratome at 40 μm and series sections (10 to 12 slices) were collected in 0.1M phosphate buffer. […] 4′-6-Diamidino-2-phenylindole (DAPI), a fluorescent stain that binds strongly to DNA, was used it to detect cell nuclei in the sections. The sections were then mounted on slides for immunofluorescence detection using a Zeiss fluorescence microscope.

degenerated neurons = test: Degenerated neurons by Fluoro-Jade C staining in 5XFAD APP transgenic mice; format: in vivo; conditions: Δ^9-THC 3 mg/kg once daily for 4 weeks
Method: Degenerated neurons were detected using Fluoro-Jade C (FJC), which is an anionic dye that specifically stains the soma and neurites of degenerating neurons and thus is unique as a neurodegenerative marker. Cryostat cut sections were incubated in the solution with FJC (0.0001% solution, EMD Millipore) and DAPI (0.5 μg/ml) for 10 min, followed by 3×1-min wash with distilled water. Slices were dried naturally at room temperature without light. The images were taken using a Zeiss deconvolution microscope with SlideBook 5.0 software as described previously (Chen et al., 2012).

neprilysin (NEP) = test: Neprilysin expression in 5XFAD APP transgenic mice (immunoblot); format: in vivo; conditions: TG mice
Method: as §2

NF-κB = NF-κB phosphorylation in NG108-15 cells
Akt, ERK, and p38MAPK = test: Phosphorylation of Akt, ERK and p38MAPK in NG108-15 cells; conditions: Δ^9-THC 30 μM
EAAT1, EAAT2, and EAAT3 = test: Hippocampal expression of glutamate transporters (immunoblot); conditions: Δ^9-THC 10 mg/kg once a day for 7 days

Compound: CCCCCc1cc(O)c2c(c1)OC(C)(C)[C@@H]1CCC(C)=C[C@@H]21 [Δ^9-THC, Δ^9-tetrahydrocannabinol]
- binding of NF-κB p65 to ptgs2 promoter positions −419 to −428 bp [1]: enhanced
- spatial memory and memory retention after repeated Δ^9-THC (spatial memory): impaired spatial memory and memory retention
- cataleptic effect (catalepsy): cataleptic and locomotor depressive effects
- locomotor depressive effect (locomotor activity): cataleptic and locomotor depressive effects
- PSD-95 expression (PSD-95): reduced expression of PSD-95
- numbers of Aβ plaques (Aβ plaques; absence of Celebrex): significantly reduced
- numbers of Aβ plaques (Aβ plaques; presence of Celebrex 1 mg/kg): significantly reduced
- numbers of degenerated neurons (degenerated neurons; absence of Celebrex): significantly reduced
- numbers of degenerated neurons (degenerated neurons; presence of Celebrex 1 mg/kg): significantly reduced
- expression of neprilysin (NEP) (neprilysin (NEP)): increases expression of neprilysin (NEP)
- NF-κB phosphorylation (NF-κB): induced NF-κB phosphorylation
- phosphorylation of Akt, ERK, and p38MAPK (Akt, ERK, and p38MAPK): induced phosphorylation of these signaling molecules
- expression of glutamate transporters (EAAT1, EAAT2, and EAAT3): down-regulated
